# Where two headings read alike, the source gives them in different places.
# How the values were obtained:
# Assay type in all cases: biochemical
# opioid receptor mu = target: T1, opioid receptor mu (Homo sapiens, UniProt P35372); assay: GTPγ[35S] binding assay, antagonism of endorphin; conditions: read-out: Mu functional (GTPγ[35S] binding Ki)
# T1 construct: expressed in transfected cells
# Method: (§1) Membranes were prepared from cells as described (Bass et al, 1996). GTPγ[5S] binding assays were performed in a 96 well FlashPlate™ format in duplicate using […] GTPγ[^35S] and 5 μg membrane per well in assay buffer composed of 50 mM Tris HCl, pH 7.4, 5 mM MgCl2, 1 mM EDTA, 100 mM NaCl, 30 μM GDP, 0.1% bovine serum albumin and the following protease inhibitors: 100 μg/ml bacitracin, 100 μg/ml benzamidine, 5 μg/ml aprotinin, 5 μg/ml leupeptin. The assay mix was then incubated at 30° C. with increasing concentrations of antagonist (10^−10 M to 10^−5 M) for 10 minutes and challenged with the agonists BW-373U86 (1 nM), dynorphin-A (10 nM), […] (1 μM) for opioid receptors delta, kappa, and mu, respectively. The assays were performed at 30° C. for one hour. The FlashPlates were then centrifuged at 2000×g for 10 minutes. Stimulation of GTPγ[^35S] binding was then quantified using a Wallac Microbeta and Ki calculations were done using Prism™ by Graphpad.
# opioid receptor kappa = target: T2, opioid receptor kappa (Homo sapiens, UniProt P41145); assay: GTPγ[35S] binding assay, antagonism of dynorphin-A; conditions: read-out: Kappa functional (GTPγ[35S] binding Ki)
# T2 construct: expressed in transfected cells
# Method: as §1
# opioid receptor delta = target: T3, opioid receptor delta (Homo sapiens, UniProt P41143); assay: GTPγ[35S] binding assay, antagonism of BW-373U86; conditions: read-out: Delta functional (GTPγ[35S] binding Ki)
# T3 construct: expressed in transfected cells
# Method: as §1
# [1] = average Ki, antagonism of endorphin (1 μM) stimulated GTPγ[35S] binding, mu opioid receptor membranes
# [2] = average Ki, antagonism of dynorphin-A (10 nM) stimulated GTPγ[35S] binding, kappa opioid receptor membranes
# [3] = average Ki, antagonism of BW-373U86 (1 nM) stimulated GTPγ[35S] binding, delta opioid receptor membranes
# T2 sequence (P41145 whole entry): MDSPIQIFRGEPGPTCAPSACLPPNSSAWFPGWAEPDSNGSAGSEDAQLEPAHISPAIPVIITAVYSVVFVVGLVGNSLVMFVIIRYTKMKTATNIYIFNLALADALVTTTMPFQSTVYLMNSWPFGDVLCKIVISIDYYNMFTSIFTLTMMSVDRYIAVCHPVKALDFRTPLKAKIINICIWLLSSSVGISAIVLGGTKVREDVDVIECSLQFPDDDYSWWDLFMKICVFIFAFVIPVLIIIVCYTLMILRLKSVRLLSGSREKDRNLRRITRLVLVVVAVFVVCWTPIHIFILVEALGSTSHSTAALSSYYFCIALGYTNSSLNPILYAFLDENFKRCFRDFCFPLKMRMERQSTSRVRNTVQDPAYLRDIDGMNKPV
# T3 sequence (P41143 whole entry): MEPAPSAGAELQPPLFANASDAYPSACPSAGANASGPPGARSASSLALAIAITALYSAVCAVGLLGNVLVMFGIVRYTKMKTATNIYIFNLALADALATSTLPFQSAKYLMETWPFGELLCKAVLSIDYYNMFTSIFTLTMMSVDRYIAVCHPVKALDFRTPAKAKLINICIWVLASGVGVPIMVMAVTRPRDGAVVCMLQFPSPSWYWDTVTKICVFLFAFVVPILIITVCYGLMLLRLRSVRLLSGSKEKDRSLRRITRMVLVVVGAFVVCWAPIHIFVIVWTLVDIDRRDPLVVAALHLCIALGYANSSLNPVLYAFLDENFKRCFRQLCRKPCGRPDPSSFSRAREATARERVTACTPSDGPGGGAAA
# T1 sequence (P35372 whole entry): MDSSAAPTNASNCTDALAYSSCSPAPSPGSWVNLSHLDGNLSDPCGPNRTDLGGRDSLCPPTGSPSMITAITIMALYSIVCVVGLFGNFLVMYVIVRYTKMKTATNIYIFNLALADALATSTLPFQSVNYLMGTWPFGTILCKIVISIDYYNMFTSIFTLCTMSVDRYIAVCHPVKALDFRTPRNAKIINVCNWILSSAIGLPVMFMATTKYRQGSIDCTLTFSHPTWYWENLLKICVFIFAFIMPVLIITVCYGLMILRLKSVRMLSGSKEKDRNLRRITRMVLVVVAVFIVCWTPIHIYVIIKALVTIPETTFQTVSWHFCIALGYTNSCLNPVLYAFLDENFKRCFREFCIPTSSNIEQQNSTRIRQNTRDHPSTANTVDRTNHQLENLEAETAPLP
Ki (opioid receptor mu; [1]) [nM],Ki (opioid receptor kappa; [2]) [nM],Ki (opioid receptor delta; [3]) [nM],Ki (opioid receptor mu) [nM],Ki (opioid receptor kappa) [nM],Ki (opioid receptor delta) [nM],SMILES
1.49,11.5,,,,,Cc1cc(CNCCC(C)C)ccc1-c1cccc(C(N)=O)c1 [1A-01]
1.25,6.72,2.59,,,,Cc1cc(CNCCC(C)C)cc(C)c1-c1cccc(C(N)=O)c1 [1A-02]
1.2,3.76,4.87,,,,CC(C)CCNCc1cc(Cl)c(-c2cccc(C(N)=O)c2)c(Cl)c1 [1A-03]
4.64,28.8,13.8,,,,CC(C)CCNCc1ccc(-c2cccc(C(N)=O)c2)c(C#N)c1 [1A-04]
14,16.6,10.7,,,,COc1cc(-c2cccc(C(N)=O)c2)ccc1CNCCC(C)C [1A-05]
52.3,101,0.0351,,,,CC(C)CCNCc1ccc(-c2cccc(C(N)=O)c2)cc1O [1A-06]
70.9,87.3,3160,,,,CC(C)CCNCc1cc(F)c(-c2cccc(C(N)=O)c2)cc1F [1A-08]
64.8,51.1,16.7,,,,CC(C)CCNCc1cc(F)c(-c2cc(C(N)=O)ccc2F)cc1F [1A-09]
,,,0.966,14.4,5.5,NC(=O)c1cccc(-c2cc(F)c(CNC3Cc4ccccc4C3)c(F)c2)c1 [1A-10]
,,,0.843,12.4,6.62,NC(=O)c1ccc(F)c(-c2cc(F)c(CNC3Cc4ccccc4C3)c(F)c2)c1 [1A-11]
41.1,34.9,17.2,,,,CC(C)CCNCc1ccc(-c2cc(C(N)=O)ccc2F)cc1F [1A-12]
25,23.4,33.6,,,,CC(C)CCNCc1ccc(-c2cccc(C(N)=O)c2)cc1Cl [1A-13]
17.8,24.8,13.6,,,,Cc1cc(CNCCC(C)C)ccc1-c1ccc(C(N)=O)cc1 [1B-01]
,,,2.66,20.1,5.28,Cc1cc(C(N)=O)ccc1-c1c(F)cc(CNC2Cc3ccccc3C2)cc1F [1B-04]
107,162,3000,,,,CC(C)CCNCc1c(F)cc(-c2ccc(C(N)=O)cc2)cc1F [1B-05]
,,,0.0494,0.241,0.0993,Cc1cc(C(N)=O)ccc1-c1cc(F)c(CNC2Cc3ccccc3C2)c(F)c1 [1B-07]
3.24,1.89,1.97,,,,Cc1cc(C(N)=O)ccc1-c1ccc(CNCCC(C)C)c(F)c1 [1B-08]
70.5,17.9,11,,,,COCCNCc1c(F)cc(-c2ccc(C(N)=O)cc2C)cc1F [1B-09]
,,,0.0717,0.256,0.0326,Cc1cc(C(N)=O)ccc1-c1ccc(CNC2Cc3ccccc3C2)c(F)c1 [1B-10]
154,114,22,,,,CC(C)CCNCc1ccc(-c2cccc(C(N)=O)c2)cn1 [1C-01]
20.5,17.1,11.7,,,,Cc1cc(C(N)=O)ccc1-c1ccc(CNCCC(C)C)nc1 [1D-01]
43.1,14.7,4.33,,,,Cc1cc(C(N)=O)ccc1-c1ccc(CNCCC(C)C)cn1 [1D-02]
,,,0.541,2.93,1.24,Cc1cc(C(N)=O)ccc1-c1ccc(CNC2Cc3ccccc3C2)cn1 [1D-03]
,,,0.715,1.88,0.868,Cc1cc(C(N)=O)ccc1-c1ccc(CNC2Cc3ccccc3C2)nc1 [1D-04]
,,,1.85,4.96,4.85,NC(=O)c1ccc(-c2ccc(CNC3Cc4ccccc4C3)nc2)c(Cl)c1 [1D-05]
,,,1.1,4.13,3.45,NC(=O)c1ccc(-c2ccc(CNC3Cc4ccccc4C3)cn2)c(Cl)c1 [1D-06]
1.43,8.99,9.3,,,,Cc1cc(CNCCC(C)C)ccc1-c1ncc(C(N)=O)cc1C [1D-07]
32.8,26.9,15.7,,,,CC(C)CCNCc1ccc(-c2cccc(C(N)=O)c2)cc1 [4A-01]
44800,724,1.55,,,,CC(C)CCNCc1ccc(-c2ccc(F)c(C(N)=O)c2)cc1 [4A-02]

# From US7615651B2, “Diaryl, dipyridinyl and aryl-pyridinyl derivatives and uses thereof” (Pfizer Inc., priority 2006, dated 2009)
